# Assays:
# SREBP = SREBP mRNA expression assay in HepG2 cells (RT-PCR); type: cell-based, human; conditions: Homo sapiens, HepG2, 8 h, HepG2 cells, 300 nM rexinoids, 8 h, SREBP mRNA by RT-PCR; mean ± SD of 3 experiments; read-out: SREBP activation Fold induction vs. Control
# Method: The goals of our structure–activity relationship (SAR) studies were to explore and discover new scaffolds that not only bind to RXR but also are able to independently modulate both iNOS and SREBP activity in accordance with a previously described screening paradigm. To characterize the effect of the novel rexinoids on SREBP elevation in vitro, HepG2 cells were treated with 300 nM rexinoids for 8 h and SREBP mRNA levels were measured by RT-PCR. SREBP expression ranged from no change to a 4.6-fold induction compared to the vehicle control when treated with the novel compounds. […] Analogs MSU- 41402, 41582, 41407, 41566, 41844, 41845, 42011, and 42166 induced an SREPB mRNA fold expression change of 1–1.5 normalized to a vehicle control, while bexarotene induced an mRNA fold expression change of > 2 (Table 1).
# HepG2 were plated in 6-well plates (1 × 10^6 cells/well) and, after allowing the cells to attach overnight, were treated with 300 nM rexinoids and/or varying concentrations of T0901317 (TOCRIS # 2373), GSK 2033 (TOCRIS # 5694), HX 531 (TOCRIS # 3912) for 8 h. Total RNA was isolated with TRIzol (Invitrogen, Carlsbad, CA) and 2 µg RNA was used to synthesize cDNA using the SuperScript III reverse transcriptase kit (Invitrogen, Carlsbad, CA). Primers (IDT) for SREBP (F: 5′-GCCGGTTGATAGGCAGCTT-3′; R: 5′-GGTGAGTGGCGGAACCATT-3′) and GAPDH (F: 5′-[…]-3′; R: 5′-[…]-3′), the SYBR Green Supermix (Bio-rad Laboratories, Hercules, CA) and the QuantStudio 7 Flex Real-Time PCR system (95 °C for 20 s followed by 40 cycles of 95 °C for 15 s and 60 °C for 1 min were used to detect mRNA expression. Relative SREBP/GAPDH gene expression was calculated by the delta-delta Ct method. To evaluate protein expression by western blotting, HepG2 cells were plated as above and treated with 300 nM of rexinoids for 24 h. Cells were harvested and lysed in RIPA buffer (1 M Tris–Cl, 5 M NaCl, pH 7.4, 0.5 M EDTA, 25 mM sodium deoxycholate, 1% triton-X, 0.1% SDS, 0.0125% aprotinin) with protease inhibitors (1% PMSF/0.5% apoprotein/0.1%leupeptin). Protein concentration was measured using a BCA assay (Sigma-Aldrich). Proteins (10 µg/well) were separated in 10% SDS-PAGE gels and transferred to nitrocellulose membranes. Membranes were incubated with SREBP (Active Motif; 1:1000) and GAPDH (Santa Cruz Biotechnology; 1:8000) primary antibodies followed by anti-rabbit secondary antibodies conjugated to horseradish peroxidase (Cell Signaling). Signal was detected using the ECL Western Blotting Substrate (GE Healthcare), and protein levels quantified using ImageJ.
# Kras-driven lung tumors = assay: Treatment of established vinyl carbamate-induced lung adenocarcinomas in A/J mice; type: in vivo
# Method: All experiments were performed ethically in accordance with the best practices and AAALAC-accredited Standards for the Management of Laboratory Animals at Michigan State University (MSU). These standards include making every effort to minimize suffering. Mice were euthanized by inhalation of carbon dioxide followed by removal of the lungs. All animal protocols were approved by the Institutional Animal Care and Use Committee (IACUC, protocol 201,800,050)) at MSU. At 7 and 8 weeks of age, A/J female mice (Jackson Laboratories) were injected i.p. with vinyl carbamate (Toronto Research Chemicals, 0.32 mg/mouse). Mice were fed a semi-synthetic diet (AIN-93G BioServ, Flemington NJ), beginning one week before initiation with vinyl carbamate and then for 8 weeks after the first injection. The mice were then randomized into groups (n = 15 mice/group) and fed treatment diets (100 mg rexinoid/kg AIN-93G diet or ~ 25 mg/kg body weight) for 12 weeks. Rexinoids were dissolved in a vehicle of 12.5 ml ethanol and 37.5 ml Neobee oil (Spectrum Chemical, Gardena CA) per kg AIN-93G diet. Six total doses of paclitaxel (Fisher; 15 mg/kg i.p.) and then carboplatin (Fisher; 50 mg/kg i.p.) were given every other week, beginning 9 weeks after injection with vinyl carbamate. After 12 weeks on the treatment diets, blood and lungs were harvested. Lungs were inflated with PBS and surface lesions counted. The left lung was fixed in neutral-buffered formalin (NBF), then sample numbers blinded and randomized. Grossly visible lung tumors on the surface of the left lung were counted. The left lung was embedded in paraffin, step-sectioned (6 sections/lung, 200 microns apart) and then stained with Haemotoxylin and Eosin (H&E). The number, size, and histopathology of tumors on the slides were then evaluated as described. The right lobes of the lung were divided into halves. One half was analyzed by flow cytometry and the other half flash frozen (CO2 and ethanol bath) and stored at − 80 °C.
# At 11, 15, and 20 weeks after initiation, anesthesia was induced using 2–4% isofluorane in oxygen at 0.8–2 L/min in a chamber and then maintained using 1.5–2% isofluorane in oxygen at 0.8 L/min using a nosecone. Animals were kept on a heating pad or a heated platform while under anesthesia. Fur was removed from the thoracic area using a chemical depilitory (Nair) immediately prior to imaging. A Vevo 2100 (Fujifilm VisualSonics) high-frequency ultrasound with a MS550D 40 MHz transducer was used to image lung tumors.
# [1] = Lipid levels in plasma (triglyceride and cholesterol kits); type: in vivo, A/J mice; conditions: 100 mg/kg diet for 12 weeks, n = 8, mean ± SE
# Method: Triglyceride and cholesterol levels in plasma (n = 8 mice/group) harvested at necropsy were measured using the Triglyceride Quantification Assay Kit (Abcam) or the Cholesterol Quantification Kit (Sigma-Aldrich), respectively, using the recommended protocol supplied by the manufacturer.
# [2] = Plasma triglycerides in MMTV-neu mice fed rexinoids; type: in vivo; conditions: MMTV-neu mice fed rexinoids for 10 days, n=5-6 mice/group
# Method: fold expression triglyceride
# Supplemental Fig 1. Correlation of SREPB mRNA expression and triglyceride levels. HepG2 human liver cells were treated with 300 nM of rexinoids for 8 hr,and lysates analyzed by RT-PCR. Triglycerides in plasma from MMTV-neu mice fed rexinoids for10 days were measured using a commercial kit(Abcam). *, p <0.01 vs control; **, p<0.05 vs bex and LG268; n=5-6 mice/group.
# [3] = rexinoids 100 mg/kg diet 12 weeks, C/P i.p. x6
# [4] = rexinoids 100 mg/kg diet 12 weeks, C/P i.p. x6, mean ± SE
# [5] = tumor histopathology, 12 weeks of treatment
compound,measurement,setting,value
C=C(c1ccc(C(=O)O)cc1)c1cc2c(cc1C)C(C)(C)CCC2(C)C [Bexarotene],fold induction at 0.3 µM,SREBP,> 2
same,Single agent activity in this model,"Kras-driven lung tumors; 100 mg/kg diet, 12 weeks",inactive
same,Tumor grades compared to the controls,Kras-driven lung tumors; 12 weeks of treatment,no differences
same,Average # tumors/slide,"Kras-driven lung tumors; rexinoids 100 mg/kg diet 12 weeks, C 50 mg/kg and P 15 mg/kg i.p. x6, mean ± SE",3.37 ± 0.3
same,Average # tumors/slide (% control),Kras-driven lung tumors; [3],79%
same,Average tumor burden (% control),Kras-driven lung tumors; [3],78%
same,Average tumor size (% control),Kras-driven lung tumors; [3],100%
same,Average tumor burden,Kras-driven lung tumors; [4],0.72 ± 0.2 mm^3
same,Average tumor size,Kras-driven lung tumors; [4],0.22 ± 0.04 mm^3
same,# High grade tumors,Kras-driven lung tumors; [5],71
same,# Low grade tumors,Kras-driven lung tumors; [5],1 (1%)
same,# Medium grade,Kras-driven lung tumors; [5],29 (29%)
same,High grade tumors (% total),Kras-driven lung tumors; [5],70%
same,Low grade tumors (% total),Kras-driven lung tumors; [5],1 (1%)
same,Medium grade (% total),Kras-driven lung tumors; [5],29 (29%)
same,Cholesterol in plasma,[1],1.99 ± 0.1ǂ µg/µL
same,Triglycerides in plasma,[1],2.21 ± 0.16ǂ nmol/µL
same,Cholesterol in plasma,[1]; listed as bexarotene,1.99 ± 0.1 µg/µL
same,Triglycerides in plasma,[1]; listed as bexarotene,2.21 ± 0.16 nmol/µL
same,Plasma triglyceride levels in mice,[2],2.38 ± 0.3 nmol/µL
